# PMC4139061, “Structural basis of nucleoside and nucleoside drug selectivity by concentrative nucleoside transporters” (eLife, 2014)
# What was measured:
# Format in all cases: cell-based
# [1] = molecular target: T1, hCNT1 (Homo sapiens, UniProt O00337); assay: two-electrode voltage-clamp of Na+ currents / total charge in Xenopus oocytes expressing hCNT1
# T1 sequence (O00337 1-649): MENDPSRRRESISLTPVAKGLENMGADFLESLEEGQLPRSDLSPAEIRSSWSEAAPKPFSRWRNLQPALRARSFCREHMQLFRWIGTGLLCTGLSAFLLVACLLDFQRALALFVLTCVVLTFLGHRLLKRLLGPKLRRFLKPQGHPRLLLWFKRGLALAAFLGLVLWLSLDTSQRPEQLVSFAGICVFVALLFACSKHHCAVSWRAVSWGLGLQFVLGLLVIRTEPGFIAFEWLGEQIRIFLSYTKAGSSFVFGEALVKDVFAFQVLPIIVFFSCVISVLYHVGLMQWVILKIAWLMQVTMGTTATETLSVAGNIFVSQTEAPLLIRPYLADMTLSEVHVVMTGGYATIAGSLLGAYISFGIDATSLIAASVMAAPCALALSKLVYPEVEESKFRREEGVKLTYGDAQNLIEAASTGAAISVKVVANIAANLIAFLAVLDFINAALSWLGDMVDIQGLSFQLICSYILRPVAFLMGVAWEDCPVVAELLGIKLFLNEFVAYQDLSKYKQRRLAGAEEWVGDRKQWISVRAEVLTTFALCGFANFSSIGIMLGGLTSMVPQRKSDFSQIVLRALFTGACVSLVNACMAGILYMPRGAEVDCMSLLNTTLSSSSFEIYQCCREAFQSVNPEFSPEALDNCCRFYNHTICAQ
# Excerpt: (§1) To detect nucleoside transport by hCNTs, we turned to two-electrode voltage-clamp electrophysiological recording. Because hCNTs are Na^+-nucleoside symporters, one can measure the current generated by the Na^+ transport that is coupled with nucleoside transport. We injected Xenopus oocytes with mRNA coding for each of the hCNTs and measured inward Na^+ currents elicited by the addition of different nucleosides to the extracellular side.
# (§2) The genes coding for the three hCNTs and vcCNT were cloned into a pGEM-HE vector. Plasmids were linearized using either SphI or NheI, and mRNA was transcribed using the mMESSAGE mMACHINE T7 Transcription Kit (Ambion, Grand Island, NY). Defolliculated Xenopus laevis oocytes were purchased from Ecocyte Bioscience (Austin, TX). Individual oocytes were injected with 40 ng of mRNA using a 10-μl microdispenser (Drummond Scientific, Broomall, PA) fitted with a tapered glass pipette tip and incubated at 17 °C for 4–5 days in ND96 buffer (96 mM NaCl, 2 mM KCl, 1 mM MgCl2, 1.8 mM CaCl2, and 5 mM HEPES pH 7.5) with 0.1% penicillin and streptomycin before recording.
# The oocyte-recording chamber was gravity-perfused with ND96 buffer at a rate of 2 ml/min. Membrane currents were measured using an Oocyte Clamp (OC-725C; Warner Instruments, Hamden, CT). Individual oocytes were penetrated with two microelectrodes filled with 3 M KCl (0.5–1.0 MΩ). All electrophysiological experiments were conducted at room temperature. The OC-725C Oocyte Clamp was computer-interfaced via an Axon Digidata 1550 and controlled by Axoscope software (Molecular Devices, Sunnyvale, CA). The current signals were filtered at 20 Hz and sampled at intervals of 20 ms. The signals were filtered at 0.5 Hz by use of pCLAMP 10.4 software for data presentation. […] Cells were discarded if resting membrane potentials were unstable or more positive than −30 mV. Oocyte membrane potentials were clamped at −90 mV for holding potentials to measure transporter-generated currents. All data are shown as means ± SEM.
# [2] = molecular target: hCNT2 (Homo sapiens, UniProt O43868); assay: two-electrode voltage-clamp of Na+ currents in Xenopus oocytes expressing hCNT2; details: data not shown
# Excerpt: as §1, §2
# The oocyte-recording chamber was gravity-perfused with ND96 buffer at a rate of 2 ml/min. Membrane currents were measured using an Oocyte Clamp (OC-725C; Warner Instruments, Hamden, CT). Individual oocytes were penetrated with two microelectrodes filled with 3 M KCl (0.5–1.0 MΩ). […]
# [3] = molecular target: hCNT3 (375L/446V) (Homo sapiens, UniProt Q9HAS3, L446V/V375L); assay: two-electrode voltage-clamp total charge in Xenopus oocytes expressing hCNT3 (375L/446V); details: mean of Exp. 1-11
# Excerpt: In the paradigm of the alternating-access mechanism of sodium-coupled symporters ([Krishnamurthy et al., 2009]), substrate release is achieved by the transition from the inward-facing occluded to the inward-facing open state (Figure 6C).
# (§3) Figure 6. […] (A) Model of hCNT3 nucleo-pocket. […] (B) Model of hCNT1 nucleo-pocket. […] (C) Hypothetical alternating-access mechanism of vcCNT. A cartoon representation of the different conformational states along the transport cycle is depicted. The transport domain (including HP1, HP2, TM4b, and TM7b) and TM6 are shown as cylinders. […] The nucleo-pocket in the inward-occluded conformation (bottom right) is located between TM6 and TM4 and is marked with a green star. The inward-occluded conformation is derived from the crystal structures of vcCNT. All other conformations are purely hypothetical. The transition between inward- and outward-facing conformations has been proposed to be achieved by a rigid-body movement of the transport domain across TM6 ([Johnson et al., 2012]). Extracellular and intracellular gating likely involves slight rearrangements of HP2/TM4b and HP1/TM7b, respectively. […] See Figure 6—source data 1 for total charge source data. DOI: http://dx.doi.org/10.7554/eLife.03604.024 Figure 6—source data 1. Total charge data. Total charge transported (μC) was calculated as the area under the curve of the current trace after application of the indicated nucleoside to hCNT-expressing Xenopus oocytes. Each row represents a separate experiment done using a different oocyte. The ratios of the total charge transported for the nucleosides are shown in the last columns.
# The genes coding for the three hCNTs and vcCNT were cloned into a pGEM-HE vector. Plasmids were linearized using either SphI or NheI, and mRNA was transcribed using the mMESSAGE mMACHINE T7 Transcription Kit (Ambion, Grand Island, NY). […]
# The oocyte-recording chamber was gravity-perfused with ND96 buffer at a rate of 2 ml/min. Membrane currents were measured using an Oocyte Clamp (OC-725C; Warner Instruments, Hamden, CT). […]
# [4] = molecular target: hCNT1 (353V/424L) (Homo sapiens, UniProt O00337, L353V/V424L); assay: two-electrode voltage-clamp total charge in Xenopus oocytes expressing hCNT1 (353V/424L); details: mean of Exp. 1-8
# Excerpt: as §3, §2
# The oocyte-recording chamber was gravity-perfused with ND96 buffer at a rate of 2 ml/min. Membrane currents were measured using an Oocyte Clamp (OC-725C; Warner Instruments, Hamden, CT). Individual oocytes were penetrated with two microelectrodes filled with 3 M KCl (0.5–1.0 MΩ). All electrophysiological experiments were conducted at room temperature. The OC-725C Oocyte Clamp was computer-interfaced via an Axon Digidata 1550 and controlled by Axoscope software (Molecular Devices, Sunnyvale, CA). The current signals were filtered at 20 Hz and sampled at intervals of 20 ms.
# hCNT1 (353V/424L), sequence (O00337 whole entry L353V/V424L): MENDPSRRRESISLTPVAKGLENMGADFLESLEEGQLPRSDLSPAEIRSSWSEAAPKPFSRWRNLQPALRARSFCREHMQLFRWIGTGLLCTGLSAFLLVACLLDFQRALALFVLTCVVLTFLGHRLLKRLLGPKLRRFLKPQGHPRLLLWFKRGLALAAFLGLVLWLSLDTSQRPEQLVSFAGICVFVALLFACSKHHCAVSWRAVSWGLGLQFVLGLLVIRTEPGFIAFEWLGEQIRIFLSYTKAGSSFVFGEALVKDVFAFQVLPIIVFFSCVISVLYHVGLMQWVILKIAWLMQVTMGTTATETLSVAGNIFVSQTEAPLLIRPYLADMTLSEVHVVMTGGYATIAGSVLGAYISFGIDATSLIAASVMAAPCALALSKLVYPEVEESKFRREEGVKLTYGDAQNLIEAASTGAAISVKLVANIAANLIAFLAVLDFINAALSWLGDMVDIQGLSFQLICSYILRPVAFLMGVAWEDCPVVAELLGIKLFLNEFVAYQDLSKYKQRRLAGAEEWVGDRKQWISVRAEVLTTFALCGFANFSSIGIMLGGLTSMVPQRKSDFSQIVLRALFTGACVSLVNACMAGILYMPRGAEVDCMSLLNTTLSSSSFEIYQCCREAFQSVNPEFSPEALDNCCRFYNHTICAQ
# hCNT3 (375L/446V), sequence (Q9HAS3 whole entry V375L/L446V): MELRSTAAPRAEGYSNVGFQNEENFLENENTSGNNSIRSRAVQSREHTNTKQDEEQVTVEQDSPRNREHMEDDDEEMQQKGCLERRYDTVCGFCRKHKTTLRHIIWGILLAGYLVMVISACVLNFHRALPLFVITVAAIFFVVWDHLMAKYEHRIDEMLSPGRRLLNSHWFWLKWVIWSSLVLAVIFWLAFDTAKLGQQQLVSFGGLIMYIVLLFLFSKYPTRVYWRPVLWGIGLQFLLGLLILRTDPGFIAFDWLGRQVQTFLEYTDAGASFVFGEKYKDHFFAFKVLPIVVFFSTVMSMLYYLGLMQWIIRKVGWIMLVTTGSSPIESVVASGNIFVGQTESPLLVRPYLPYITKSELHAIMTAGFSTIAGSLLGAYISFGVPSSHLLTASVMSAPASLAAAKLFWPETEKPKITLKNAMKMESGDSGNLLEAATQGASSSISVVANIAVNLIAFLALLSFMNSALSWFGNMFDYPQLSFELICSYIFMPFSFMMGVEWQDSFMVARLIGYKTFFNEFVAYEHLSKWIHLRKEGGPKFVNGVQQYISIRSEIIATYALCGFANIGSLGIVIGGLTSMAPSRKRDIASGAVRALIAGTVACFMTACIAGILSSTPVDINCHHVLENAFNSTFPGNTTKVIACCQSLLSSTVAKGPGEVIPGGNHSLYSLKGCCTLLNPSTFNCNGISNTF
# hCNT2, sequence (O43868 whole entry): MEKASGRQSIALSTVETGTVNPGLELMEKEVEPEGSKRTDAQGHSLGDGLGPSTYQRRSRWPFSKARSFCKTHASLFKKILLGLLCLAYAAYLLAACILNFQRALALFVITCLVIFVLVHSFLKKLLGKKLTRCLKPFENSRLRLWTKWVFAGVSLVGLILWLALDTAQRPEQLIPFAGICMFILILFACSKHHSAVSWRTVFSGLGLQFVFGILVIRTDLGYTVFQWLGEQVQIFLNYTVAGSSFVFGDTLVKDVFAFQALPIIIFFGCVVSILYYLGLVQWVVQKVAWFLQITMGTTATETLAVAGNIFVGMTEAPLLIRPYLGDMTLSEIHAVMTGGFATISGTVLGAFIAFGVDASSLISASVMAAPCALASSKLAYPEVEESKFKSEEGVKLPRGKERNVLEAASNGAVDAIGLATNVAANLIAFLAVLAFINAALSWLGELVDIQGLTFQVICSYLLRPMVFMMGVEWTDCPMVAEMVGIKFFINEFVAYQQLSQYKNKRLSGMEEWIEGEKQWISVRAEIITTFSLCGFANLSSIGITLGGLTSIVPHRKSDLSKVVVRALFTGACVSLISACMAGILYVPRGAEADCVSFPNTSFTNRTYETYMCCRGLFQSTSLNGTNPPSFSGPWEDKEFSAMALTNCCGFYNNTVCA
structure (smiles),measurement,setting,value
Cc1cc2cn([C@@H]3O[C@H](CO)[C@@H](O)C3(F)F)c(=O)nc2[nH]1 [pyrrolo-gemcitabine],"Total charge transported, Mean","[1]; 200 μM nucleoside, hCNT1-expressing Xenopus oocytes, mean of Exp. 1-11",0.823 μC
same,total charge uptake higher than gemcitabine,"[1]; fold, hCNT1 oocytes, 200 μM",sevenfold
same,"Qpyr-gem/Qgem, Mean","[1]; ratio of total charge, 200 μM each, hCNT1, mean of Exp. 1-11",6.829
same,transport by hCNT2,[2],transported neither compound
same,"Total charge transported, Mean","[3]; 400 μM nucleoside, hCNT3 (375L/446V)-expressing Xenopus oocytes",4.864 μC
same,"Qgem/Qpyr-gem, Mean","[3]; ratio of total charge, 400 μM each, hCNT3 (375L/446V)",1.287
same,"Total charge transported, Mean","[4]; 400 μM nucleoside, hCNT1 (353V/424L)-expressing Xenopus oocytes",0.255 μC
same,"Qpyr-gem/Qgem, Mean","[4]; ratio of total charge, 400 μM each, hCNT1 (353V/424L)",0.385
